Entries after “also recorded” stand apart in the source; their conditions may differ. Like-named read-outs stand apart in the source and are kept apart here. Numbered stars: 1 amine (or outer) side, 2 acyl side, 3 side chain; on linkers, the order of the positions; unused ones are H or OH. Bridge positions count the residues as written; N and C are the ends. Square brackets hold non-standard residues; d marks the D form. Peptide text beside a SMILES is read from it. I, II: the chains in the order shown. ξ: configuration not given here. Phe(4-tBu) = CC(C)(C)c1ccc(C[C@H](N)C(=O)O)cc1; Diglycolyl = O=C(COCC(=O)[*:2])[*:1]; NMeR = CN[C@@H](CCCNC(=N)N)C(=O)O; β3hE = N[C@@H](CCC(=O)O)CC(=O)O; Thr(3ξ) = CC(O)[C@H](N)C(=O)O; X1 = O=C(c1ccccc1C[*:2])[*:1]; Pen = CC(C)(S)[C@H](N)C(=O)O
Experiments:
[1] = Oral bioavailability in cynomolgus monkeys; conditions: cynomolgus monkey, in vivo
[2] = tested on: gut homing of ATRA+ T cells; test: Gut homing of cultured T cells transferred into recipient mice; type: in vivo, C57BL/6 mice
Protocol: (§1) Purified CD3+ cells were isolated from B6.SJL (CD45.1+) donor mice and cultured in the presence of anti-CD3/anti-CD28 beads and IL-2 to induce T cell activation and proliferation. In some culture conditions, Compound A and/or ATRA were added. To track the cells in vivo, ATRA− and ATRA+ cells were labeled with CMFDA and CTFR respectively. These labeled cells were then co-injected into C57BL/6 (CD45.2+) recipient mice.
The proportion of ATRA− and ATRA+ cells in spleen, Peyer's patches (PP), and ileal lamina propria (LP) of the recipient mice was measured by flow cytometry to evaluate cell homing.
Thirty-eight (38) C57BL/6 (CD45.2+) recipient mice were acclimated for 9 weeks before the start of the study (Day 0) and were 16 weeks old at cell transfer (Day 5). On Day 4, recipient mice were assigned to groups in a balanced manner to achieve similar average weight across the groups.
On Day 5, after removal of CD3/CD28 beads from cell cultures with a magnet, ATRA+ cells were labeled with CFTR, and ATRA− cells were labeled with CMFDA. Cells from each culture condition were then counted. For each group, ATRA− cells and cells from one of the ATRA+ culture conditions were mixed at a 1:1 ratio per Table 8 below and transferred into the recipient mice. Approximately 13 million of each type of cells (total of 26 million cells) were injected i.v. into each mouse.
Mice in Group 2 were dosed with anti-VLA-4 once, on Day 5 prior to cell transfer. Anti-VLA-4 (PS/2) antibodies were purchased from BioXCell and were kept at −80 C until needed. Antibodies were diluted to a final concentration of 1 mg/mL with sterile PBS and dosed at 10 mg/kg, intraperitoneally. No in vivo treatment was administered to other groups.
Twenty (20) to 22 hours after cell transfer all mice were euthanized, and their blood, spleen, Peyer's patches and small intestines collected. Approximately 50 μL of plasma was isolated from the blood of each mouse and sored on dry ince until further analysis.
Cells from the following tissues were isolated from each mouse for flow cytometric analysis: • Spleen • Peyer's patches • Ileal lamina propria Isolated cells were counted and stained with anti-CD45.1 antibodies and live/dead stain. Cells were then acquired for flow cytometric analysis and the proportions of CD45.1+, ATRA+ and ATRA− cells in each tissue determined.

[3] = target: T1, α4β7 integrin (Homo sapiens, UniProt P13612+P26010); test: Inhibition of MAdCAM1-mediated CD4+ T cell proliferation (plate bound anti-CD3 + MAdCAM1); type: cell-based
T1 construct: endogenous in cells; host or cells: primary human CD4+ T cells enriched from PBMCs of healthy donors
T1 sequence (P13612 34-1032): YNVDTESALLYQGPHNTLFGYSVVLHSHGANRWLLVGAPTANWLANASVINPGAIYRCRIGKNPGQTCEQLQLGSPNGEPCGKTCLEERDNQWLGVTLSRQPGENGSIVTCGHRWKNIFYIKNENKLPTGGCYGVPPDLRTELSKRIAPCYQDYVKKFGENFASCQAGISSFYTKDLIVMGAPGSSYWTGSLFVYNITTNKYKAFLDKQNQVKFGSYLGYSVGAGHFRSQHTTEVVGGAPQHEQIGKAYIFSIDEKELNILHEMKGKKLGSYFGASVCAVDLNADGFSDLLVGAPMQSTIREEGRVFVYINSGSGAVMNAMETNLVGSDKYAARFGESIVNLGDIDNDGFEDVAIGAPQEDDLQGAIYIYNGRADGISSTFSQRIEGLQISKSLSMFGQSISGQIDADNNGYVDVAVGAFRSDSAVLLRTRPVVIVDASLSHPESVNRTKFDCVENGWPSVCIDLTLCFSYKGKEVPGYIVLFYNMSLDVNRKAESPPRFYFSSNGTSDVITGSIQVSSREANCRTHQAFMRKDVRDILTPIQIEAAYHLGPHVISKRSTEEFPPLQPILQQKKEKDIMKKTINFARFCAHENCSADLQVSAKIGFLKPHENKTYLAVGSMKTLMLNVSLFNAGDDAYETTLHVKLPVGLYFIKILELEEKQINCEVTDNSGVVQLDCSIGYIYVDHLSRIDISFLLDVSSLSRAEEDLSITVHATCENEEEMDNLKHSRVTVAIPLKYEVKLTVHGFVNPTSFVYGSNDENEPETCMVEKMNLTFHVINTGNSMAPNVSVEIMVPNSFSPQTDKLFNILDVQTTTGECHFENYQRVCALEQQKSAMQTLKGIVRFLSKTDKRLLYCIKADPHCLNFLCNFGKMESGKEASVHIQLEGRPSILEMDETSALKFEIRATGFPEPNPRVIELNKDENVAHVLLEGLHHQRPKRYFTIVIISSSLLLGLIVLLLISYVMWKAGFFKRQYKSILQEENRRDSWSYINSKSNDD
T1 sequence (P26010 20-798): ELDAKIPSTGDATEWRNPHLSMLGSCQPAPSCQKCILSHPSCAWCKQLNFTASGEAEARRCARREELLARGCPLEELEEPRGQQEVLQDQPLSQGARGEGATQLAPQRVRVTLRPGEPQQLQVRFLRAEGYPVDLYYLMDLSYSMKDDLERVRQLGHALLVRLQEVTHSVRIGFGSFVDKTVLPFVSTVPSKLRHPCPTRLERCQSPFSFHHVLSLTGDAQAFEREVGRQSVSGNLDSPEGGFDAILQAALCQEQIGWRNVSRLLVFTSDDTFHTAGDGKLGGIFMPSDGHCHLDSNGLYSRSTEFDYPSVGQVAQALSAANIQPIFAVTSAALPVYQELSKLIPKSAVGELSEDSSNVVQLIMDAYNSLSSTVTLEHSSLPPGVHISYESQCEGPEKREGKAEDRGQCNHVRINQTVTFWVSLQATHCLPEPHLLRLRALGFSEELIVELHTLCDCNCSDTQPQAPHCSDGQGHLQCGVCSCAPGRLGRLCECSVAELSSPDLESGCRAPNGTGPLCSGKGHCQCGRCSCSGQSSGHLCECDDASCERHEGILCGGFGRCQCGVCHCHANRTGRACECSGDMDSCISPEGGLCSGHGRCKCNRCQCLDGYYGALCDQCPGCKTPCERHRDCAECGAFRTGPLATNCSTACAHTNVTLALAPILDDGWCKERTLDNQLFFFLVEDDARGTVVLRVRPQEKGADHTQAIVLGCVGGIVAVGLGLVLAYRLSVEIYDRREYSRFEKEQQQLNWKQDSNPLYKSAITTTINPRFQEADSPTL
Protocol: (§2) PBMCs were purified from healthy human donors and enrichment of CD4+ T cells was performed. […] Phenotype, distribution of T-helper (Th) subsets and % RO analyses were conducted by flow cytometry of freshly stained live samples.

[4] = Systemic absorption in animal studies; type: in vivo; conditions: oral
[5] = tested on: integrin β7, integrin α4 and CCR9 on cultured CD3+ cells; test: Gut homing receptor expression on T cells cultured with ATRA; type: cell-based, B6.SJL mice; conditions: 100 and 1000 nM in culture
Protocol: as §1
Eighteen (18) B6.SJL (CD45.1+) donor mice were acclimated for 3 to 9 weeks before the start of the study and were 11 to 16 weeks old at culture setup (Day 0). On Day 0, spleen and lymph node cells were isolated from donor mice and pooled. CD3+ cells were enriched using […] Technologies kit catalog number 19851. Purity of enriched cells was confirmed by flow cytometry.
Approximately 44% of the cells were then cultured at 1.5×10^6/mL in the presence of anti-CD3/CD28 beads (Dynabeads, ThermoFisher 11453D), with a 1:1 cell to bead ratio (ATRA−, per Table 4 below). […] All-trans retinoic acid (ATRA) was then added to these cultures at a concentration of 0.1 μM.
On Day, 1 IL-2 was added to all cultures to reach a concentration of 30 U/mL.

[6] = clinical; conditions: male, human, in vivo; for AUC(0-inf): AUCinf (ng · h/mL); for AUC(0-t): AUCt (ng · h/mL); for AUC: AUCtau (ng · h/mL); for Cmax: Cmax (ng/mL)
Protocol: Dose escalation proceeded from 100 mg, 300 mg, 1000 mg, 1400 mg. Subjects in the 300 mg dose cohort received treatment in the fasted state on one occasion and following a high fat meal on a second occasion in a crossover fashion. The high fat meal consisted of two eggs fried in butter, two strips of bacon, two slices of toast with butter, four ounces of hash brown potatoes and 240 ml of whole milk. During Part 1, subjects refrained from food and drink except water for 10 hours before and for four hours after dosing with the exception of subjects in the 300 mg dose cohort during the fed treatment.
Part 2 was a randomized, placebo-controlled, double-blind multiple ascending dose study in 50 male subjects divided equally into 5 cohorts. […] Doses evaluated in Part 2 included 100 mg, 300 mg and 1000 mg. During Part 2, two cohorts of subjects (100 mg and 300 mg) received food approximately 30 minutes prior to each dose and another two cohorts of subjects (300 mg and 100 mg) refrained from food for 10 hours before and for 1 hour after dosing.
Study 1: The single and multiple ascending dose phase of the study consisted of sequential dose escalations in 10 subject per dose cohort. […] Dose solutions were formulated in 50 mM phosphate buffer pH 7.4 and were prepared weekly by a qualified pharmacist.
Blood samples for pharmacokinetics were collected predose and for 48 hours postdose following single doses. In the multiple ascending dose phase, blood samples were obtained on Days 1-3 and 14-16; on Days 8 samples were obtained predose, 4, and 12 hours. On Day 10 of the MAD, subjects were required to collect all urine for the 0-6, 6-12, 12-18, and 18-24 hour intervals postdose and on Day 11 subjects were required to collect fecal samples.
The drug and internal standard were extracted from the matrix by a protein precipitation procedure. The limit of quantitation was 0.2 ng/mL, 20 ng/mL, and 100 ng/mL in plasma, urine, and feces, respectively. […] Coefficient of determinations for the calibration curves were at least 0.99 for all matrices. The interassay accuracy (% bias) ranged from −2.2% to 1.0% for plasma, −3.8% to 9.0% for urine and −5.0 to 5.2% for feces. Interassay precision (% CV) ranged from 3.7% to 7.7% for plasma, 2.8% to 7.0% for urine, and 1.2% to 5.2% for feces.
Pharmacokinetic parameters were estimated by noncompartmental methods using Phoenix WinNonlin (Certara, Princeton N.J.). Peak plasma concentration (Cmax) and time to peak plasma concentration (Tmax) were observed values. The elimination rate was estimated from the slope of the least-squares regression on the terminal log-linear phase. Area under the plasma concentration-time curve from time zero to the last quantifiable concentration (AUCt) was estimated by a linear trapezoidal method and was extrapolated to infinity (AUC∞) by dividing the last quantifiable concentration b the elimination rate.

[7] = tested on: primary CD4+ T-cells; test: Flow cytometry phenotype of proliferated CD4+ T-cells (Th subsets, surface β7); type: cell-based, human
Protocol: as §2

[8] = Anti-CD3 + MAdCAM1 + 1 uM Compound A

CC(C)C[C@@H]1NC(=O)[C@H](C(C)O)NC(=O)[C@H](CC(=O)O)NC(=O)[C@H](CO)NC(=O)[C@H](CCCNC(=N)N)N(C)C(=O)c2ccccc2CSC(C)(C)[C@@H](C(=O)N[C@@H](Cc2ccc(C(C)(C)C)cc2)C(=O)N[C@@H](CCC(=O)O)CC(=O)N[C@H](CCCCNC(=O)COCC(=O)NCCCC[C@@H](NC(=O)C[C@H](CCC(=O)O)NC(=O)[C@H](Cc2ccc(C(C)(C)C)cc2)NC(=O)[C@H]2NC(=O)[C@H](CC(C)C)NC(=O)[C@H](C(C)O)NC(=O)[C@H](CC(=O)O)NC(=O)[C@H](CO)NC(=O)[C@H](CCCNC(=N)N)N(C)C(=O)c3ccccc3CSC2(C)C)C(=O)O)C(=O)O)NC1=O (stereo partly drawn) [Compound A, ((2-Benzyl)-(N-Me-R)-Ser-Asp-Thr-Leu-Pen-(Phe(4-tBlu))-(β-homo-Glu)-(D-Lys)-OH)2 (SEQ ID NO: 5) and linker-DIG diglycolic acid] (I: [NMeR]SD[Thr(3ξ)]L[Pen][Phe(4-tBu)][β3hE][dK]-OH / II: [NMeR]SD[Thr(3ξ)]L[Pen][Phe(4-tBu)][β3hE][dK]-OH; linker I:9-II:9 via Diglycolyl; linker I:N-I:6, II:N-II:6 via X1)
bioavailability [1]: < 1%
ATRA+/10^3 live cells +/− SD in Ileal LP ([2]; cells cultured with 100 nM): 4.3 +/− 1.7 /10^3 live cells
ATRA+/10^3 live cells +/− SD in Peyer's patches ([2]; cells cultured with 100 nM): 0.3 +/− 0.2 /10^3 live cells
ATRA+/10^3 live cells +/− SD in spleen ([2]; cells cultured with 100 nM): 2.9 +/− 0.3 /10^3 live cells
ATRA−/10^3 live cells +/− SD in Ileal LP ([2]; cells cultured with 100 nM): 0.3 +/− 0.1 /10^3 live cells
ATRA−/10^3 live cells +/− SD in Peyer's patches ([2]; cells cultured with 100 nM): 0.2 +/− 0.2 /10^3 live cells
ATRA−/10^3 live cells +/− SD in spleen ([2]; cells cultured with 100 nM): 9.0 +/− 1.1 /10^3 live cells
CD45.1+ cells/10^3 live cells +/− SD, Ileal LP ([2]; cells cultured with 100 nM): 4.6 +/− 1.8 /10^3 live cells
CD45.1+ cells/10^3 live cells +/− SD, Peyer's patches ([2]; cells cultured with 100 nM): 0.6 +/− 0.3 /10^3 live cells
CD45.1+ cells/10^3 live cells +/− SD, Spleen ([2]; cells cultured with 100 nM): 12.1 +/− 1.4 /10^3 live cells
Total number of cells isolated (×10^3), Ileal LP ([2]; cells cultured with 100 nM): 2005 +/− 1276 ×10^3
Total number of cells isolated (×10^3), Peyer's patches ([2]; cells cultured with 100 nM): 673 +/− 295 ×10^3
Total number of cells isolated (×10^3), Spleen ([2]; cells cultured with 100 nM): 100650 +/− 10215 ×10^3
ATRA+/10^3 live cells +/− SD in Ileal LP ([2]; cells cultured with 1000 nM): 3.5 +/− 1.8 /10^3 live cells
ATRA+/10^3 live cells +/− SD in Peyer's patches ([2]; cells cultured with 1000 nM): 0.3 +/− 0.1 /10^3 live cells
ATRA+/10^3 live cells +/− SD in spleen ([2]; cells cultured with 1000 nM): 2.4 +/− 0.5 /10^3 live cells
ATRA−/10^3 live cells +/− SD in Ileal LP ([2]; cells cultured with 1000 nM): 0.2 +/− 0.1 /10^3 live cells
ATRA−/10^3 live cells +/− SD in Peyer's patches ([2]; cells cultured with 1000 nM): 0.2 +/− 0.1 /10^3 live cells
ATRA−/10^3 live cells +/− SD in spleen ([2]; cells cultured with 1000 nM): 8.0 +/− 1.4 /10^3 live cells
CD45.1+ cells/10^3 live cells +/− SD, Ileal LP ([2]; cells cultured with 1000 nM): 3.8 +/− 1.7 /10^3 live cells
CD45.1+ cells/10^3 live cells +/− SD, Peyer's patches ([2]; cells cultured with 1000 nM): 0.6 +/− 0.1 /10^3 live cells
CD45.1+ cells/10^3 live cells +/− SD, Spleen ([2]; cells cultured with 1000 nM): 10.6 +/− 1.9 /10^3 live cells
Total number of cells isolated (×10^3), Ileal LP ([2]; cells cultured with 1000 nM): 1730 +/− 1023 ×10^3
Total number of cells isolated (×10^3), Peyer's patches ([2]; cells cultured with 1000 nM): 775 +/− 360 ×10^3
Total number of cells isolated (×10^3), Spleen ([2]; cells cultured with 1000 nM): 90617 +/− 13418 ×10^3
IC50 [3]: 4.4 nM
IC50 ([3]; Average, read-out: IC50): 3.5 nM
inhibition of MAdCAM1-mediated proliferation of CD4+ T-cells ([3]; Compound A 1 uM, inactive analog 1 uM, vedolizumab 500 ng/mL, three days): completely abolished
IC50 ([3]; Donor 7, read-out: IC50): 1.6 nM
IC50 ([3]; Donor 8, read-out: IC50): 3.7 nM
IC50 ([3]; Donor 9, read-out: IC50): 5.2 nM
IC50 ([3]; Donor 11, read-out: IC50): 8 nM
Complete Mayo Score, Adapted Mayo Score, and/or Partial Mayo Score vs placebo (450 mg BID or 150 mg BID): statistically significant improvement
safety of treatment (in vivo): safe
systemic absorption [4]: < 1%
expression of CCR9, ATRA+/Compound A vs ATRA+/DMSO cultures [5]: did not appear to be affected
expression of integrin α4, ATRA+/Compound A vs ATRA+/DMSO cultures [5]: lower
proportion of integrin β7+ cells, ATRA+/Compound A vs ATRA+/DMSO cultures [5]: lower proportion; also recorded: smaller proportion
AUC(0-inf) ([6]; 100 mg): 0.0165 µg·h/mL
AUC(0-inf) ([6]; 300 mg): 0.0576 ± 0.0236 µg·h/mL
AUC(0-t) ([6]; 450 mg): 0.0776 ± 0.0371 µg·h/mL
AUC ([6]; 450 mg): 0.0415 ± 0.0107 µg·h/mL
Cmax ([6]; 450 mg): 0.00996 µg/mL
AUC(0-inf) ([6]; 900 mg): 0.176 ± 0.0985 µg·h/mL
AUC(0-t) ([6]; 900 mg): 0.159 ± 0.0705 µg·h/mL
AUC ([6]; 900 mg): 0.159 ± 0.0705 µg·h/mL
Cmax ([6]; 900 mg): 0.0142 µg/mL
AUC(0-inf) ([6]; 1000 mg): 0.151 ± 0.0317 µg·h/mL
AUC(0-t) ([6]; 1000 mg): 0.138 ± 0.0337 µg·h/mL
Cmax ([6]; 1000 mg): 0.0153 ± 0.00411 µg/mL
AUC(0-inf) ([6]; 1400 mg): 0.26 µg·h/mL
AUC(0-t) ([6]; 1400 mg): 0.257 ± 0.173 µg·h/mL
Cmax ([6]; 1400 mg): 0.0235 µg/mL
Th1-IFNγ, CD4+ T-cells [7, 8]: 15%
Th2-IL-4, CD4+ T-cells [7, 8]: 0.7%
Th17-IL-17A, CD4+ T-cells [7, 8]: 0.6%
surface expression of β7 in undivided CD4+ T-cells ([7]; tested in 5 donors): lowered

Reference: patent US20230063321A1, “Methods for Treating Inflammatory Bowel Diseases with alpha4beta7 Integrin Antagonists” (Protagonist Therapeutics, Inc., priority 2020, published 2023)
